Laboratory results published in patent publication US20260266848A1, “COMPOSITIONS AND METHODS FOR DIAGNOSING AND TREATING DYSTONIA” (Duke University, priority 2023, published 2026).
Where “and” joins values, the source holds several entries; their conditions need not be identical. Equal entries are not always repeated.

Test system: DYT-TOR1A MEF EVs
Assay: Quantitative LC-MS/MS proteomics of EVs from drug-treated DYT-TOR1A MEF cultures (ritonavir, salubrinal)
Format: cell-based, mouse
Settings: 24 h

Q: What does the source list for `CC(C)c1nc(CN(C)C(=O)N[C@H](C(=O)N[C@@H](Cc2ccccc2)C[C@H](O)[C@H](Cc2ccccc2)NC(=O)OCc2cncs2)C(C)C)cs1` [ritonavir]?
A: DYT-TOR1A genotype-disrupted EV proteins (n=363) with significant changes in abundance following ritonavir treatment (20 μM ritonavir, p≤0.05): > 60% and 63%; DYT-TOR1A genotype-dependent protein disruptions changed by ritonavir in the corrective direction (20 μM): 95%; putative DYT biomarkers with ritonavir effects on protein abundance in the corrective direction (20 μM, independent of p-value, of 363 proteins): 344/363; DYT EV proteome significantly modified by ritonavir (20 μM, uncorrected p<0.05, 1974 proteins): 29%; Acaa1a (ACAA1) EV abundance Log2_FC (DYT1+RTV/DYT1, 20 μM): 0.8675; Ano6 (ANO6) EV abundance Log2_FC (DYT1+RTV/DYT1, 20 μM): 0.08584; Ap1b1 (AP1B1) EV abundance Log2_FC (DYT1+RTV/DYT1, 20 μM): 1.328; Arl8b (ARL8B) EV abundance Log2_FC (DYT1+RTV/DYT1, 20 μM): 0.4007; Bzw2 (BZW2) EV abundance Log2_FC (DYT1+RTV/DYT1, 20 μM): 0.8082; Cryab (CRYAB) EV abundance Log2_FC (DYT1+RTV/DYT1, 20 μM): 0.42; DIst (DLST) EV abundance Log2_FC (DYT1+RTV/DYT1, 20 μM): −0.4459; Ehd4 (EHD4) EV abundance Log2_FC (DYT1+RTV/DYT1, 20 μM): 0.07182; Flna (FLNA) EV abundance Log2_FC (DYT1+RTV/DYT1, 20 μM): 0.3721; Fscn1 (FSCN1) EV abundance Log2_FC (DYT1+RTV/DYT1, 20 μM): 0.402; Gart (GART) EV abundance Log2_FC (DYT1+RTV/DYT1, 20 μM): 0.677; Hist1h1b (H1-5) EV abundance Log2_FC (DYT1+RTV/DYT1, 20 μM): 0.9834; Hnrnpc (HNRNPC) EV abundance Log2_FC (DYT1+RTV/DYT1, 20 μM): −0.1273; Ipo9 (IPO9) EV abundance Log2_FC (DYT1+RTV/DYT1, 20 μM): 1.122; Jam3 (JAM3) EV abundance Log2_FC (DYT1+RTV/DYT1, 20 μM): −1.301; Lipg (LIPG) EV abundance Log2_FC (DYT1+RTV/DYT1, 20 μM): 1.299; Lrrc59 (LRRC59) EV abundance Log2_FC (DYT1+RTV/DYT1, 20 μM): 0.1624; Mapk3 (MAPK3) EV abundance Log2_FC (DYT1+RTV/DYT1, 20 μM): 1.986; Mars (MARS1) EV abundance Log2_FC (DYT1+RTV/DYT1, 20 μM): 0.5148; Mrc2 (MRC2) EV abundance Log2_FC (DYT1+RTV/DYT1, 20 μM): −0.09834; Myh9 (MYH9) EV abundance Log2_FC (DYT1+RTV/DYT1, 20 μM): −0.00905; Ndnf (NDNF) EV abundance Log2_FC (DYT1+RTV/DYT1, 20 μM): 0.4697; Pcmt1 (PCMT1) EV abundance Log2_FC (DYT1+RTV/DYT1, 20 μM): 2.547; Pi4ka (PI4KA) EV abundance Log2_FC (DYT1+RTV/DYT1, 20 μM): −0.3588; Pitpnb (PITPNB) EV abundance Log2_FC (DYT1+RTV/DYT1, 20 μM): 0.7296; Prpsap2 (PRPSAP2) EV abundance Log2_FC (DYT1+RTV/DYT1, 20 μM): −0.08407; Psmc5 (PSMC5) EV abundance Log2_FC (DYT1+RTV/DYT1, 20 μM): 0.4559; Psmd12 (PSMD12) EV abundance Log2_FC (DYT1+RTV/DYT1, 20 μM): 1.09; Psme4 (PSME4) EV abundance Log2_FC (DYT1+RTV/DYT1, 20 μM): 1.371; Ptma (PTMA) EV abundance Log2_FC (DYT1+RTV/DYT1, 20 μM): −0.8532; Rap2b (RAP2B) EV abundance Log2_FC (DYT1+RTV/DYT1, 20 μM): 0.3342; Rbm3 (RBM3) EV abundance Log2_FC (DYT1+RTV/DYT1, 20 μM): −0.1048; Rhoa (RHOA) EV abundance Log2_FC (DYT1+RTV/DYT1, 20 μM): 0.1985; Rpl10 (RPL10) EV abundance Log2_FC (DYT1+RTV/DYT1, 20 μM): 0.5214; Rpl13a (RPL13A) EV abundance Log2_FC (DYT1+RTV/DYT1, 20 μM): 0.6732; Rps13 (RPS13) EV abundance Log2_FC (DYT1+RTV/DYT1, 20 μM): 0.02007; Sec31a (SEC31A) EV abundance Log2_FC (DYT1+RTV/DYT1, 20 μM): 0.8357; Slc2a1 (SLC2A1) EV abundance Log2_FC (DYT1+RTV/DYT1, 20 μM): −0.03153; Stom (STOM) EV abundance Log2_FC (DYT1+RTV/DYT1, 20 μM): 0.1986; Tardbp (TARDBP) EV abundance Log2_FC (DYT1+RTV/DYT1, 20 μM): 0.2272; Tgfb2 (TGFB2) EV abundance Log2_FC (DYT1+RTV/DYT1, 20 μM): −0.7218; Tln1 (TLN1) EV abundance Log2_FC (DYT1+RTV/DYT1, 20 μM): 0.1451; Tln2 (TLN2) EV abundance Log2_FC (DYT1+RTV/DYT1, 20 μM): 0.6441; Tubb1 (TUBB1) EV abundance Log2_FC (DYT1+RTV/DYT1, 20 μM): −0.05972; Usp7 (USP7) EV abundance Log2_FC (DYT1+RTV/DYT1, 20 μM): 1.189; Wdr26 (WDR26) EV abundance Log2_FC (DYT1+RTV/DYT1, 20 μM): 1.2; Zyx (ZYX) EV abundance Log2_FC (DYT1+RTV/DYT1, 20 μM): −0.3666; Acaa1a (ACAA1) EV abundance Cohen's d (DYT + RTV/DYT, 20 μM): 1.381; Ano6 (ANO6) EV abundance Cohen's d (DYT + RTV/DYT, 20 μM): 0.2001; Ap1b1 (AP1B1) EV abundance Cohen's d (DYT + RTV/DYT, 20 μM): 3.258; Arl8b (ARL8B) EV abundance Cohen's d (DYT + RTV/DYT, 20 μM): 0.9032; Bzw2 (BZW2) EV abundance Cohen's d (DYT + RTV/DYT, 20 μM): 1.685; Cryab (CRYAB) EV abundance Cohen's d (DYT + RTV/DYT, 20 μM): 0.7088; DIst (DLST) EV abundance Cohen's d (DYT + RTV/DYT, 20 μM): −1.437; Ehd4 (EHD4) EV abundance Cohen's d (DYT + RTV/DYT, 20 μM): 0.2557; Flna (FLNA) EV abundance Cohen's d (DYT + RTV/DYT, 20 μM): 1.357; Fscn1 (FSCN1) EV abundance Cohen's d (DYT + RTV/DYT, 20 μM): 2.995; Gart (GART) EV abundance Cohen's d (DYT + RTV/DYT, 20 μM): 2.137; Hist1h1b (H1-5) EV abundance Cohen's d (DYT + RTV/DYT, 20 μM): 1.182; Hnrnpc (HNRNPC) EV abundance Cohen's d (DYT + RTV/DYT, 20 μM): −0.2031; Ipo9 (IPO9) EV abundance Cohen's d (DYT + RTV/DYT, 20 μM): 4.135; Jam3 (JAM3) EV abundance Cohen's d (DYT + RTV/DYT, 20 μM): −2.624; Lipg (LIPG) EV abundance Cohen's d (DYT + RTV/DYT, 20 μM): 2.834; Lrrc59 (LRRC59) EV abundance Cohen's d (DYT + RTV/DYT, 20 μM): 0.8879; Mapk3 (MAPK3) EV abundance Cohen's d (DYT + RTV/DYT, 20 μM): 2.384; Mars (MARS1) EV abundance Cohen's d (DYT + RTV/DYT, 20 μM): 2.211; Mrc2 (MRC2) EV abundance Cohen's d (DYT + RTV/DYT, 20 μM): −0.4039; Myh9 (MYH9) EV abundance Cohen's d (DYT + RTV/DYT, 20 μM): −0.03876; Ndnf (NDNF) EV abundance Cohen's d (DYT + RTV/DYT, 20 μM): 0.353; Pcmt1 (PCMT1) EV abundance Cohen's d (DYT + RTV/DYT, 20 μM): 5.975; Pi4ka (PI4KA) EV abundance Cohen's d (DYT + RTV/DYT, 20 μM): −0.6453; Pitpnb (PITPNB) EV abundance Cohen's d (DYT + RTV/DYT, 20 μM): 2.824; Prpsap2 (PRPSAP2) EV abundance Cohen's d (DYT + RTV/DYT, 20 μM): −0.1421; Psmc5 (PSMC5) EV abundance Cohen's d (DYT + RTV/DYT, 20 μM): 2.883; Psmd12 (PSMD12) EV abundance Cohen's d (DYT + RTV/DYT, 20 μM): 10.6; Psme4 (PSME4) EV abundance Cohen's d (DYT + RTV/DYT, 20 μM): 3.22; Ptma (PTMA) EV abundance Cohen's d (DYT + RTV/DYT, 20 μM): −2.366; Rap2b (RAP2B) EV abundance Cohen's d (DYT + RTV/DYT, 20 μM): 0.7129; Rbm3 (RBM3) EV abundance Cohen's d (DYT + RTV/DYT, 20 μM): −0.4328; Rhoa (RHOA) EV abundance Cohen's d (DYT + RTV/DYT, 20 μM): 0.3039; Rpl10 (RPL10) EV abundance Cohen's d (DYT + RTV/DYT, 20 μM): 0.7944; Rpl13a (RPL13A) EV abundance Cohen's d (DYT + RTV/DYT, 20 μM): 0.9222; Rps13 (RPS13) EV abundance Cohen's d (DYT + RTV/DYT, 20 μM): 0.06202; Sec31a (SEC31A) EV abundance Cohen's d (DYT + RTV/DYT, 20 μM): 4.402; Slc2a1 (SLC2A1) EV abundance Cohen's d (DYT + RTV/DYT, 20 μM): −0.04516; Stom (STOM) EV abundance Cohen's d (DYT + RTV/DYT, 20 μM): 0.4181; Tardbp (TARDBP) EV abundance Cohen's d (DYT + RTV/DYT, 20 μM): 0.6116; Tgfb2 (TGFB2) EV abundance Cohen's d (DYT + RTV/DYT, 20 μM): −1.388; Tln1 (TLN1) EV abundance Cohen's d (DYT + RTV/DYT, 20 μM): 1.026; Tln2 (TLN2) EV abundance Cohen's d (DYT + RTV/DYT, 20 μM): 1.031; Tubb1 (TUBB1) EV abundance Cohen's d (DYT + RTV/DYT, 20 μM): −0.1131; Usp7 (USP7) EV abundance Cohen's d (DYT + RTV/DYT, 20 μM): 7.143; Wdr26 (WDR26) EV abundance Cohen's d (DYT + RTV/DYT, 20 μM): 3.714; Zyx (ZYX) EV abundance Cohen's d (DYT + RTV/DYT, 20 μM): −0.7038; Pearson r between ritonavir and salubrinal effects on putative DYT-TOR1A biomarker proteins (DYT-TOR1A MEF EVs, 20 μM each): 0.47
